Structures can show the parent of a compound that is named as a salt. A value given as a limit tells only on which side of the number the result lay.

The nature of the assay: Free radical-scavenging/antioxidant assay (DPPH). It counts as biochemical. The following applies: 50 μM DPPH in 80% methanol, absorbance at 520 nm, 24 h time point (steady state); read-out: EC50 (concentration at which a compound reduces by 50% the peak absorbance of DPPH at 520 nm). Here is the method: Nitrone compounds of the present invention were tested for their free-radical scavenging/antioxidant activity in an in vitro assay that is accepted by those skilled in the art as a model for conditions involving the generation of free radicals. The assay is based on a reaction between a free-radical donor, 2,2-diphenyl-1-picrylhydrazyl (DPPH), and a radical scavenger/antioxidant to be tested for free-radical scavenging activity. Upon donation of the free-radical electron to the purported radical scavenger, the peak visible absorbance of DPPH (515-520 nm) decreases so that optical density readings at this part of the visual spectrum reflect the progression of the following reaction: DPPH∩+AH→DPPH-H+A∩ where AH is a hypothetical radical scavenger/antioxidant. The assay is based on a protocol originally detailed in Brand-Williams, W. et al., 1995, Use of a Free Radical Method to Evaluate Antioxidant Activity, Lebensm. Wiss. Technol., 28:25-30, with further modifications described in L. R. Fukumoto and G. Mazza, 2000, Assessing Antioxidant and Prooxidant Activities of Phenolic Compounds, J. Agric. Food Chem., 48:3597-3604.
The antioxidant assay was performed using Perkin-Elmer 96-well, clear-bottom, black-wall plates (ordered from E & K Scientific Products) and a Tecan Safire absorbance plate reader. The positive controls were Trolox (6-hydroxy-2,5,7,8-tetramethylchromane-2-carboxylic acid, Sigma-Aldrich), BHA (2(3)-tert-butylhydroquinone monomethyl ether, Sigma-Aldrich), PBN (C-(phenyl)-N-(tert-butyl)nitrone, Sigma-Aldrich) and S-PBN (C-(2-sulfophenyl)-N-(tert-butyl)nitrone, sodium salt, prepared according to E. G. Janzen and R. V. Shetty, 1979, Tetrahedron Lett., 35: 3229-32), and the negative control (i.e., vehicle) was DMSO. In brief, 2 μL of 100×DMSO stock of the desired final concentration of each control or nitrone compound to be tested in the same batch was added to a separate well. To each well was then added 198 μL of a freshly made 50 μM DPPH (Sigma-Aldrich) solution in 80% methanol using a multi-channel pipette. The absorbance was immediately read on the plate reader at 520 nm and thereafter read periodically to assess kinetics until all reactions reached completion (i.e., steady state). Since the steady-state point was 24 h, the assay results are shown from the 24 h time point. The absorbance at 520 nm (OD) was plotted versus the concentrations of the controls and nitrone compounds to assess dose-response and interpolate the EC50 values of the controls and test compounds.
On the technique in general: Loss of DPPH colour is used to gauge radical scavenging.
With `COC(=O)c1[nH]c2ccccc2c1/C=[N+](\[O-])Cc1ccccc1` [Example 40, N-Benzyl-C-[2-(methoxycarbonyl)-1H-indol-3-yl]nitrone], the EC50 is greater than 1000 µM.
To `[O-]/[N+](=C\c1cccnc1N1CCOCC1)Cc1ccccc1` [Example 48, N-Benzyl-C-[2-(1-morpholino)pyridin-3-yl]nitrone] belongs greater than 1000 µM; to `CC(C)(C)/[N+]([O-])=C/c1ccccc1-n1ccnc1` [Example 14, N-(tert-Butyl)-C-[2-(imidazol-1-yl)phenyl]nitrone], greater than 1000 µM.
To `[O-]/[N+](=C\c1ccccc1N1CCN(c2ccc(C(F)(F)F)cn2)CC1)Cc1ccccc1` [Example 25, N-Benzyl-C-{2-[4-(5-(trifluoromethyl)pyridin-2-yl)piperazin-1-yl]phenyl}nitrone] belongs less than 10 µM; to `O=C(O)c1ccsc1/C=[N+](\[O-])C1CCCCC1` [Example 42, N-Cyclohexyl-C-(3-carboxythiophen-2-yl]nitrone], 100 to 500 µM; to `Cc1c(C)c2c(c(C)c1O)CCC(C)(C(=O)O)O2` (centres unmarked) [Trolox, 6-hydroxy-2,5,7,8-tetramethylchromane-2-carboxylic acid, reference compound], less than 10 µM.
With `O=[N+]([O-])c1ccc(Sc2ccccn2)c(/C=[N+](\[O-])C2CCCCC2)c1` [Example 37, N-Cyclohexyl-C-[5-nitro-2-(pyridin-2-ylthio)phenyl]nitrone] the figure was 10 to 100 µM.
`CC(C)(C)/[N+]([O-])=C/c1cc([N+](=O)[O-])ccc1Sc1ccccn1` [Example 36, N-(tert-Butyl)-C-[5-nitro-2-(pyridin-2-ylthio)phenyl]nitrone]: the EC50 was 100 to 500 µM.
With `[O-]/[N+](=C\c1ccccc1-n1cccn1)Cc1ccccc1` [Example 19, N-Benzyl-C-[2-(pyrazol-1-yl)phenyl]nitrone] the figure was greater than 1000 µM; with `[O-]/[N+](=C\c1ccccc1-n1cccn1)C1CCCCC1` [Example 18, N-Cyclohexyl-C-[2-(pyrazol-1-yl)phenyl]nitrone], greater than 1000 µM; with `O=[N+]([O-])c1ccc(SC2CCCC2)c(/C=[N+](\[O-])Cc2ccccc2)c1` [Example 31, N-Benzyl-C-[2-(cyclopentylthio)-5-nitrophenyl]nitrone], 500 to 1000 µM.
To `O=C(O)c1ccccc1/C=[N+](\[O-])C1CCCCC1` [Example 8, N-Cyclohexyl-C-(2-carboxyphenyl)nitrone] belongs 10 to 100 µM; to `CSc1nc2ccccc2cc1/C=[N+](\[O-])C(C)(C)C` [Example 49, N-(tert-Butyl)-C-[2-(methylthio)quinolin-3-yl]nitrone], 500 to 1000 µM.
To `[O-]/[N+](=C\c1ccccc1N1CCOCC1)C1CCCCC1` [Example 21, N-Cyclohexyl-C-[2-(1-morpholino)phenyl]nitrone] belongs 100 to 500 µM.
With `CC(C)(C)C(=O)Nc1cccc(/C=[N+](\[O-])C(C)(C)C)n1` [Example 51, N-(tert-Butyl)-C-[6-(2,2-dimethylpropanamido)pyridin-2-yl]nitrone], the EC50 is greater than 1000 µM.
To `Cc1ccc(Sc2ncccc2/C=[N+](\[O-])C(C)(C)C)cc1` [Example 43, N-(tert-Butyl)-C-[2-(4-methylphenylthio)pyridin-3-yl]nitrone] belongs greater than 1000 µM; to `[O-]/[N+](=C\c1ccccc1Sc1ccc(Cl)cc1)Cc1ccccc1` [Example 28, N-Benzyl-C-[2-(4-chlorophenylthio)phenyl]nitrone], 100 to 500 µM.
With `COC(=O)c1[nH]c2ccccc2c1/C=[N+](\[O-])C1CCCCC1` [Example 39, N-Cyclohexyl-C-[2-(methoxycarbonyl)-1H-indol-3-yl]nitrone] the figure was greater than 1000 µM; with `CC(C)(C)/[N+]([O-])=C/c1sccc1C(=O)O` [Example 41, N-(tert-Butyl)-C-(3-carboxythiophen-2-yl)nitrone], 10 to 100 µM.
For the compound `O=C(O)c1ccccc1/C=[N+](\[O-])Cc1ccccc1` [Example 9, N-Benzyl-C-(2-carboxyphenyl)nitrone], the EC50 fell in the range of 10 to 100 µM.
As for `COC(=O)c1c(/C=[N+](\[O-])C2CCCCC2)cc(OC)cc1OC` [Example 5, N-Cyclohexyl-C-[2-(methoxycarbonyl)-3,5-dimethoxyphenyl]nitrone], the EC50 lay in the range of 100 to 500 µM.
With `COC(=O)c1ccccc1/C=[N+](\[O-])Cc1ccccc1` [Example 3, N-Benzyl-C-[2-(methoxycarbonyl)phenyl]nitrone] the figure was 500 to 1000 µM.
`COc1cc(/C=[N+](\[O-])Cc2ccccc2)c(C(=O)O)c(OC)c1` [Example 12, N-Benzyl-C-(2-carboxy-3,5-dimethoxyphenyl)nitrone]: the EC50 was in the range of 10 to 100 µM.
To `[O-]/[N+](=C\c1ccccc1-n1ccnc1)C1CCCCC1` [Example 15, N-Cyclohexyl-C-[2-(imidazol-1-yl)phenyl]nitrone] belongs greater than 1000 µM; to `CSc1cc(C(F)(F)F)ccc1/C=[N+](\[O-])C(C)(C)C` [Example 35, N-(tert-Butyl)-C-[2-(methylthio)-4-(trifluoromethyl)phenyl]nitrone], greater than 1000 µM.
With `COc1cc(/C=[N+](\[O-])C(C)(C)C)c(C(=O)O)c(OC)c1` [Example 10, N-(tert-Butyl)-C-(2-carboxy-3,5-dimethoxyphenyl)nitrone] the figure was 500 to 1000 µM; with `CC(C)(C)[N+]([O-])=Cc1ccccc1S(=O)(=O)O` [S-PBN, C-(2-sulfophenyl)-N-(tert-butyl)nitrone, sodium salt, reference compound], greater than 1000 µM.
To `CC(C)(C)/[N+]([O-])=C/c1ccccc1N1CCN(c2ccc(C(F)(F)F)cn2)CC1` [Example 23, N-(tert-Butyl)-C-{2-[4-(5-(trifluoromethyl)pyridin-2-yl)piperazin-1-yl]phenyl}nitrone] belongs 100 to 500 µM; to `[O-]/[N+](=C\c1ccccc1Sc1ccc(Cl)cc1)C1CCCCC1` [Example 27, N-Cyclohexyl-C-[2-(4-chlorophenylthio)phenyl]nitrone], greater than 1000 µM; to `[O-]/[N+](=C\c1ccccc1-n1ccnc1)Cc1ccccc1` [Example 16, N-Benzyl-C-[2-(imidazol-1-yl)phenyl]nitrone], greater than 1000 µM.
Regarding `[O-]/[N+](=C\c1ccccc1N1CCN(c2ccc(C(F)(F)F)cn2)CC1)C1CCCCC1` [Example 24, N-Cyclohexyl-C-{2-[4-(5-(trifluoromethyl)pyridin-2-yl)piperazin-1-yl]phenyl}nitrone], the EC50 was in the range of 10 to 100 µM.
To `CC(C)(C)/[N+]([O-])=C/c1ccccc1-n1cccn1` [Example 17, N-(tert-Butyl)-C-[2-(pyrazol-1-yl)phenyl]nitrone] belongs greater than 1000 µM; to `COc1cc(/C=[N+](\[O-])C2CCCCC2)c(C(=O)O)c(OC)c1` [Example 11, N-Cyclohexyl-C-(2-carboxy-3,5-dimethoxyphenyl)nitrone], 10 to 100 µM.
With `CC(C)(C)C(=O)Nc1cccc(/C=[N+](\[O-])Cc2ccccc2)n1` [Example 53, N-Benzyl-C-[6-(2,2-dimethylpropanamido)pyridin-2-yl]nitrone], the EC50 lay within 10 to 100 µM.
To `CC(C)(C)/[N+]([O-])=C/c1ccccc1C(=O)O` [Example 7, N-(tert-Butyl)-C-(2-carboxyphenyl)nitrone] belongs 100 to 500 µM.
As for `COC(=O)c1c(/C=[N+](\[O-])Cc2ccccc2)cc(OC)cc1OC` [Example 6, N-Benzyl-C-[2-(methoxycarbonyl)-3,5-dimethoxyphenyl]nitrone], the EC50 was 100 to 500 µM.
To `CC(C)(C)/[N+]([O-])=C/c1ccccc1N1CCOCC1` [Example 20, N-(tert-Butyl)-C-[2-(1-morpholino)phenyl]nitrone] belongs 100 to 500 µM.
With `CSc1ccc(/C=[N+](\[O-])C(C)(C)C)c(SC)c1` [Example 32, N-(tert-Butyl)-C-[2,4-bis(methylthio)phenyl]nitrone] the figure was greater than 1000 µM.
Regarding `[O-]/[N+](=C\c1ccccc1N1CCOCC1)Cc1ccccc1` [Example 22, N-Benzyl-C-[2-(1-morpholino)phenyl]nitrone], the EC50 is greater than 1000 µM.
To “2(3)-tert-butylhydroquinone monomethyl ether [BHA, reference compound]” belongs less than 10 µM; to `COC(=O)c1ccccc1/C=[N+](\[O-])C(C)(C)C` [Example 1, N-(tert-Butyl)-C-[2-(methoxycarbonyl)phenyl]nitrone], 500 to 1000 µM.

For the origin of these results see patent publication US20070275932A1, “Aryl, heteroaromatic and bicyclic aryl nitrone compounds, prodrugs and pharmaceutical compositions of the same to treat human disorders” (Renovis, Inc., priority 2003, published 2007).
